One series addresses T1, Ffar2 (Homo sapiens, UniProt O15552).
T1 sequence (O15552 1-330): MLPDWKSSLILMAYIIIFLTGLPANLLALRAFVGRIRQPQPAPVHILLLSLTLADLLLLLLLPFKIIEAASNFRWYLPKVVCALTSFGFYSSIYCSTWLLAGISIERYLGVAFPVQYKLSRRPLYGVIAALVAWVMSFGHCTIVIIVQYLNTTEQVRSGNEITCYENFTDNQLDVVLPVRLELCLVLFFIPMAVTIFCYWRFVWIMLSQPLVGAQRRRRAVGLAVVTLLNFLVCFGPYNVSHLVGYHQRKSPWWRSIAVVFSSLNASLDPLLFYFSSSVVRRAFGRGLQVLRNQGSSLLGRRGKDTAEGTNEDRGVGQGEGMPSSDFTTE
The following applies: among SCFA; Le Poul et al. 2003; cited from earlier work.

Another series has as its system colonic Treg (cTreg). The experiment in a line: SPF SCFA intervention; flow cytometry of lymphocytes. In kind it is in vivo, mice. As for the experimental part:
To isolate LP lymphocytes, small and large intestines were collected and opened longitudinally and washed with PBS to remove fecal contents. To remove epithelial cells, mucus and fat tissue, intestines were incubated 2 times in EDTA (5 mM)/DTT (1 mM)/Dulbecco's PBS (calcium and magnesium-free) solution (5 ml/colon) for 25 min at 37° C. Intestines were then minced and collagenase-digested two times for 45 min at 37° C. in RPMI containing 1 mg/ml collagenase type VIII (SIGMA), 25 μg/ml DNase I (Roche), 50 μg/ml Dispase (StemCell Technologies) and 0.01M HEPES (StemCell Technologies). The crude cell suspension was loaded onto a 40%/90% Percoll (GE Healthcare) gradient and centrifuged at 720 x g for 25 min at room temperature with acceleration and brake turned off. LP lymphocytes were collected from the 40%/90% interface.
Intracellular staining of the transcription factors Foxp3, Helios and T-bet was performed using the Foxp3 Fix/Perm Buffer Set (Biolegend). For detection of intracellular cytokines, cells were first stimulated for 4 h with 50 ng/ml PMA and 1 μg/ml ionomycin in the presence of Brefeldin A (All obtained from Sigma), followed by staining for surface markers. Cells were then fixed and permeabilized using the Foxp3 Fix/Perm Buffer Set (Biolegend) and stained for intracellular cytokines. The following antibodies were used: PE-labeled anti-Foxp3 (FJK-16s, eBioscience), Pacific Blue-labeled anti-Helios (22F6), PE-, FITC- or APC-labeled anti-CD4 (RM4-5), PECy7-labeled anti-CD3 (145-2C11), PE- or APC-labeled anti-IL-10 (JES5-16E3), PerCP-Cy5.5-labeled anti-IL-17 (TC11-18H10.1), APC- or PE-Cy7-labeled anti-IFNγ (XMG1.2), Pacific Blue-labeled anti-TGFβ1 (TW7-16B4), FITC-, PerCP-Cy5.5 or Pacific Blue-labeled anti-CD45 (30-F11), PerCP-Cy5.5 anti-CD45RB (C363-16A), PE- or FITC-labeled anti-CD25 (PC61), Brilliant Violet 421-labeled anti-CD127 (A7R34), GPR43 rabbit polyclonal (Abcam Catalog *Ab118449, and anti-rabbit IgG DyLight649 (Poly4064). […] Flow cytometry was performed using LSRII and data were analyzed with FlowJo software (TreeStar, Inc.). […]
On the technique in general: Flow cytometry measures light scatter and fluorescence of single cells or particles in a stream.

Series [1] in a line: Stability of SCFA mix in mouse water bottle over time. In kind it is physicochemical.
Method: Mice were treated for 21 days with either sodium acetate (150 mM), sodium propionate (150 mM), sodium butyrate (100 mM) or a SCFA mix (67.5 mM acetate, 40 mM Butyrate, 25.9 mM Propionate) in the drinking water. In in vivo drinking water treatment experiments, control mice received pH and sodium-matched water. At the conclusion of the experiment mice were removed from isolators and processed immediately.

Each structure is given as a SMILES string.

With `CCC(=O)O` [Propionate, propionic acid], on Ffar2, the “affinity for Ffar2” value is reported as “highest affinity”. The “percentage and number of cTreg” value was “significantly enhanced” in the series on colonic Treg (cTreg) (Ffar2+/+ control mice) and “no effect” in the series with colonic Treg (cTreg) (Ffar2-/- mice). For the same compound, the “small intestinal Treg numbers” value in the series on colonic Treg (cTreg) (SPF mice, distal ileum lamina propria) is “does not affect”. Besides, the “SCFA mix in mouse water bottle over time, Input (Day 0)” value in series [1] (Day 0) came to 200 mM. In addition, the “SCFA mix in mouse water bottle over time, Day 1” value in series [1] (Day 1, input 200 mM) amounted to 200 mM. The “SCFA mix in mouse water bottle over time, Day 4” value in series [1] (Day 4, input 200 mM) is 199.6 mM. In addition, the “SCFA mix in mouse water bottle over time, Day 7” value in series [1] (Day 7, input 200 mM) was 201.24 mM. The “SCFA mix in mouse water bottle over time, Day 10” value in series [1] (Day 10, input 200 mM) is 202.9 mM. Besides, the “SCFA mix in mouse water bottle over time, Day 14” value in series [1] (Day 14, input 200 mM) stood at 203.2 mM. For the same compound, in series [1] (Day 90, input 200 mM), the “SCFA mix in mouse water bottle over time, Day 90” value came out at 41.9 mM.

The values above are taken from patent publication US20170340588A1, “MODULATION OF REGULATORY T CELLS VIA G-COUPLED PROTEIN RECEPTOR 43” (President and Fellows of Harvard College, priority 2013, published 2017).
